According to PubChem BioAssay AID2060888 (Molecular Pharmacology Branch, DTP, NCI, 2025):

System: 695427-040-R-J1-PDC complex spheroid viability
Experiment: Anticancer human tumor 695427-040-R-J1-PDC patient-derived colon adenocarcinoma cell line growth inhibition [RAS]
Settings: for IC50: curve of first compound; for viability, T/C: stronger effect = lower value
From the text: RAS pathway inhibitors in Combinations in Complex Spheroids
A high-throughput screen of multi-cell type tumor spheroids was designed to identify active combinations of RAS pathway inhibitors and targeted small molecules. Complex spheroids include a stromal component modeled by human endothelial cells (HUVEC) and fibroblasts modeled by human mesenchymal stem cells (MSCs). The concentration ranges selected for each drug and investigational agent were based upon clinically achievable concentrations if the clinical Cmax of the agent was known.
Compounds. The drugs and investigational agents: abemaciclib (NSC768073), cobimetinib (NSC768068), divarasib (GDC6063, NSC841802), docetaxel (NSC628503), GDC-1971 (RLY-1971, NSC841576), gemcitabine (NSC613327), inavolisib (NSC800729), ipatasertib (NSC767898), KB-0742 (NSC834161), MRTX-1133 (NSC836407), osimertinib (NSC779217), RMC-4630 (NSC839698), RMC-6236 (NSC851965), RMC-6291 (NSC852671), Ro-3306 (NSC812927), sapanisertib (NSC764658), SN-38 (NSC673596), staurosporine (NSC755774), SY5609 (NSC837396), and tovorafenib (DAY101, NSC766906), were obtained from the National Cancer Institute (NCI) Developmental Therapeutics Program Chemical Repository. The FDA-approved anticancer drug set is available from the NCI Developmental Therapeutics Program. […] The stock solutions were prepared in dimethyl sulfoxide (DMSO, Sigma-Aldrich, St. Louis, MO, cat. D2650) at 800-fold the tested concentration and stored at -70 degrees C prior to their use. All drugs and investigational agents were tested over a range starting from a high concentration at or near the clinical Cmax and decreasing in half-log increments. If the clinical Cmax for an agent had not been determined, the highest concentration tested was 10 microM.
Cell Culture. All cells were maintained in an incubator at 37 degrees C and 5% CO2 with 95% humidity. The PDC lines were cultured according to standard operating procedures established by the NCI PDMR. All PDCs were thawed and cultured in Matrigel-coated flasks prepared with a working solution of 1X Ham's F-12 nutrient mix, without supplementation (Invitrogen, Waltham, MA, cat. 11765054), 100 U/mL penicillin-streptomycin (Invitrogen, cat. 15140122), and 2.5% Matrigel (Corning Inc., Corning, NY, cat. 354248) for the first three passages. The 362531-283-R-J2-PDC and 782815-120-R-J1-PDC lines were cultured in 6C/Colon 1B media, which includes advanced DMEM/F-12 (Thermo Fisher Scientific, cat. 12634028), 10 mM HEPES (Thermo Fisher Scientific, cat. 15630080), 1X GlutaMAX supplement (Thermo Fisher Scientific, cat. 35050061), 0.1 mg/mL primocin (InvivoGen, San Diego, CA, cat. ant-pm-2), 10% defined fetal bovine serum, heat inactivated (HyClone Laboratories Inc., Logan, UT, cat. SH30070.03HI), 50% L-WRN conditioned media (ATCC, cat. CRL-3276), 1.25 mM N-Acetyl-L-cysteine (Sigma-Aldrich, cat. A9165), 10 mM nicotinamide (Sigma-Aldrich, cat. N0636), 1X B-27 supplement (Thermo Fisher Scientific, cat. 17504044), 1X N-2 supplement (Thermo Fisher Scientific, cat. 17502048), 50 ng/mL human EGF (Thermo Fisher Scientific, cat. PHG0311), and 10 microM Y-27632 dihydrochloride (Tocris Bioscience, cat. 1254). The K12877-001-R-J1-PDC line was cultured in 6I media, which includes all 6C/Colon 1B media plus 10 ng/mL human FGF-10 (PeproTech, cat. 100-26), 1 ng/mL human FGF-2 (PeproTech, cat. 100-18B), 1 µM prostaglandin E2 (Tocris Bioscience, cat. 2296), […] hydrocortisone (Sigma-Aldrich, cat. H4001), and […] bovine insulin (Sigma-Aldrich, cat. I6634). The K86415-001-R-J1-PDC line was cultured in 6D media, which includes all 6C/Colon 1B media components minus the L-WRN conditioned media. The 485176-168-R4-J1-PDC was cultured in PANC media, which includes all 6C/Colon 1B media plus 100 ng/mL human FGF-10 (PeproTech, cat. 100-26), 500 nM SB-431542 (Selleckchem, cat. S1067), and 10 nM gastrin (Tocris Bioscience, cat. 3006). […]

[1] = second compound 0.0316 µM, first compound 0.0316 µM
[2] = second compound 0.0316 µM, first compound 0.1 µM
[3] = second compound 0.0316 µM, first compound 0.316 µM
[4] = second compound 0.0316 µM, first compound 1 µM
[5] = second compound 0.1 µM, first compound 0.0316 µM
[6] = second compound 0.1 µM, first compound 0.1 µM
[7] = second compound 0.1 µM, first compound 0.316 µM
[8] = second compound 0.1 µM, first compound 1 µM
[9] = second compound 0.316 µM, first compound 0.0316 µM
[10] = second compound 0.316 µM, first compound 0.1 µM
[11] = second compound 0.316 µM, first compound 0.316 µM
[12] = second compound 0.316 µM, first compound 1 µM
[13] = second compound 1 µM, first compound 0.0316 µM
[14] = second compound 1 µM, first compound 0.1 µM
[15] = second compound 1 µM, first compound 0.316 µM
[16] = second compound 1 µM, first compound 1 µM
[17] = second compound 3.16 µM, first compound 0.0316 µM
[18] = second compound 3.16 µM, first compound 0.1 µM
[19] = second compound 3.16 µM, first compound 0.316 µM
[20] = second compound 3.16 µM, first compound 1 µM
[21] = second compound 10 µM, first compound 0.0316 µM
[22] = second compound 10 µM, first compound 0.1 µM
[23] = second compound 10 µM, first compound 0.316 µM
[24] = second compound 10 µM, first compound 1 µM
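Also: viability read after seven days of drug exposure.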
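For viability, T/C in this document: 100% = DMSO vehicle control viability.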

SMILES: CC(Nc1ccc2c(c1)OCCn1cc(N3C(=O)OCC3C(F)F)nc1-2)C(N)=O (centres undefined) + C#Cc1c(F)ccc2cc(O)cc(-c3ncc4c(N5CC6CCC(C5)N6)nc(OCC56CCCN5CC(F)C6)nc4c3F)c12
- IC50 (second compound 0.0316 µM): 1550 nM
- IC50 (second compound 0.1 µM): 933 nM
- IC50 (second compound 0.316 µM): 422 nM
- IC50 (second compound 1 µM): 168 nM
- IC50 (second compound 3.16 µM): < 31.6 nM
- IC50 (second compound 10 µM): < 31.6 nM
- viability, T/C [1]: 78.2%
- viability, T/C [2]: 69.5%
- viability, T/C [3]: 58.5%
- viability, T/C [4]: 52.1%
- viability, T/C (second compound 0.0316 µM, first compound 3.16 µM): 47.9%
- viability, T/C (second compound 0.0316 µM, first compound 10 µM): 40.1%
- viability, T/C [5]: 77%
- viability, T/C [6]: 69.7%
- viability, T/C [7]: 59.6%
- viability, T/C [8]: 49.9%
- viability, T/C (second compound 0.1 µM, first compound 3.16 µM): 40.4%
- viability, T/C (second compound 0.1 µM, first compound 10 µM): 35.4%
- viability, T/C [9]: 76.7%
- viability, T/C [10]: 67.1%
- viability, T/C [11]: 52%
- viability, T/C [12]: 39.9%
- viability, T/C (second compound 0.316 µM, first compound 3.16 µM): 40.5%
- viability, T/C (second compound 0.316 µM, first compound 10 µM): 30.3%
- viability, T/C [13]: 63.1%
- viability, T/C [14]: 54%
- viability, T/C [15]: 45.9%
- viability, T/C [16]: 34.8%
- viability, T/C (second compound 1 µM, first compound 3.16 µM): 31.9%
- viability, T/C (second compound 1 µM, first compound 10 µM): 23.1%
- viability, T/C [17]: 47.4%
- viability, T/C [18]: 38.3%
- viability, T/C [19]: 30.3%
- viability, T/C [20]: 23.9%
- viability, T/C (second compound 3.16 µM, first compound 3.16 µM): 22%
- viability, T/C (second compound 3.16 µM, first compound 10 µM): 16.9%
- viability, T/C [21]: 33.8%
- viability, T/C [22]: 22.1%
- viability, T/C [23]: 17.1%
- viability, T/C [24]: 13.6%
- viability, T/C (second compound 10 µM, first compound 3.16 µM): 12%
- viability, T/C (second compound 10 µM, first compound 10 µM): 10.9%

SMILES: O=C(c1ccc(F)c(F)c1Nc1ccc(I)cc1F)N1CC(O)([C@@H]2CCCCN2)C1 + C#Cc1c(F)ccc2cc(O)cc(-c3ncc4c(N5CC6CCC(C5)N6)nc(OCC56CCCN5CC(F)C6)nc4c3F)c12
- IC50 (second compound 0.0316 µM): 40.4 nM
- IC50 (second compound 0.1 µM): 31.5 nM
- IC50 (second compound 0.316 µM): 31.4 nM
- IC50 (second compound 1 µM): 17.7 nM
- IC50 (second compound 3.16 µM): 3.68 nM
- IC50 (second compound 10 µM): < 3.16 nM
- viability, T/C (second compound 0.0316 µM, first compound 0.00316 µM): 93.3%
- viability, T/C (second compound 0.0316 µM, first compound 0.01 µM): 77%
- viability, T/C [1]: 55.7%
- viability, T/C [2]: 30.5%
- viability, T/C [3]: 15.2%
- viability, T/C [4]: 2.92%
- viability, T/C (second compound 0.1 µM, first compound 0.00316 µM): 92.1%
- viability, T/C (second compound 0.1 µM, first compound 0.01 µM): 65.7%
- viability, T/C [5]: 53.8%
- viability, T/C [6]: 30.9%
- viability, T/C [7]: 15.7%
- viability, T/C [8]: 2.78%
- viability, T/C (second compound 0.316 µM, first compound 0.00316 µM): 82.9%
- viability, T/C (second compound 0.316 µM, first compound 0.01 µM): 65.5%
- viability, T/C [9]: 52.6%
- viability, T/C [10]: 29.9%
- viability, T/C [11]: 17%
- viability, T/C [12]: 4.73%
- viability, T/C (second compound 1 µM, first compound 0.00316 µM): 59.1%
- viability, T/C (second compound 1 µM, first compound 0.01 µM): 53.4%
- viability, T/C [13]: 47%
- viability, T/C [14]: 23.4%
- viability, T/C [15]: 12.8%
- viability, T/C [16]: 3.39%
- viability, T/C (second compound 3.16 µM, first compound 0.00316 µM): 52.2%
- viability, T/C (second compound 3.16 µM, first compound 0.01 µM): 38.5%
- viability, T/C [17]: 23.7%
- viability, T/C [18]: 19.6%
- viability, T/C [19]: 8.05%
- viability, T/C [20]: 2.3%
- viability, T/C (second compound 10 µM, first compound 0.00316 µM): 30.1%
- viability, T/C (second compound 10 µM, first compound 0.01 µM): 32.8%
- viability, T/C [21]: 22.5%
- viability, T/C [22]: 11.1%
- viability, T/C [23]: 2.72%
- viability, T/C [24]: 1.31%
